{"source": "patent EP0406760B1", "about": "“Plant growth regulating composition” (SUMITOMO CHEMICAL COMPANY, LIMITED, priority 1989, dated 1991)", "key": {"[1]": {"tested_on": "antocyanin production", "test": "Inhibitory effect on antocyanin production in red cabbage seedlings in water culture", "assay_type": "in vivo, red cabbase (var.: Ruby Ball)", "settings": "5 days at 25°C under 8000 luxes, in contrast to the non-treated plot", "experimental": "Water culture (10 ml) containing the compound (I) was charged in a reaction vessel, and on adsorbed cotton laid down therein 15 seeds of red cabbase (var.: Ruby Ball) were sowed and cultivated for 5 days at 25°C under 8000 luxes. The shoot of the […] cabbage was cut and antocyanin was extracted with 1N hydrochloric acid (5 ml). The amount of antocyanin thus extracted was calculated by meauring an absorption at 535 nm on a spectrophotometer. The concentration of the compound (I) which inhibits 50 % the antocyanin production was calculated in contrast to the non-treated plot. Still, neither abnormality in the vegetative part nor suppression of growth of the test plant due to Compound (I) could be observed."}, "[2]": {"tested_on": "morningglory", "test": "Inhibitory effect on antocyanin production in morningglory (soil or foliar treatment)", "assay_type": "in vivo, morningglory (var.: Scarlet Ohara)", "settings": "soil and foliar spray treatments", "experimental": "Seeds of morningglory (var.: Scarlet Ohara) was sowed in small pots (diameter, 8 cm) and cultivated in a greenhouse. At the time of development of cotyledons (9 days after sowing), short-day treatment was performed for 1 week to induce flowering. Five days prior to flowering (length of buds being about 1 to 2 cm), a designated amount of the compound (I) was applied to the soil or sprayed to the foliage of the plant. Cultivation was continued, and color of petals was visually observed in contrast to the non-treated plot and evaluated into five indices ranging from (-: no influence) to (++++: completely whitened)."}, "[3]": {"tested_on": "chlorogenic acid production", "test": "Inhibitory effect on chlorogenic acid production in sunflower", "assay_type": "in vivo, Sunflowers (var.: Russian Sunflower)", "settings": "1000 ppm wettable powder sprayed over the flowers; seed endosperm, HPLC; non-treated 3.4", "experimental": "Sunflowers (var.: Russian Sunflower) were grown in a greenhouse for two weeks and transplanted in Wagner's pots (1/5000 are) and cultivated for 2 months outdoors. When 5 to 10 days elapsed after blooming, a designated amount of the compound in the form of a wettable powder according to Formulation Example 2 was sprayed over the flowers, from which seeds were harvested. Endosperm of the seeds were crushed and subjected to boiling-extraction with ethanol and filtration. The filtrate was diluted with 0.05 M aqueous H₃PO₄ and further filtered. The amount of chlorogenic acid was quantitatively analysed by HPLC (column: Nucleosil C18 (8 mm x 25 cm); eluent: methanol : 0.05 M H₃PO₄ (35 : 75))."}, "[4]": {"tested_on": "wheat", "test": "Inhibitory effect on lignin production in wheat and softening of wheat culm", "assay_type": "in vivo, Wheat (var.: Nohrin No. 61)", "set-up": "key: -: unchanged; +++: prominently softened", "settings": "wettable powder applied to the soil, hardness of culms determined manually versus untreated", "from_the_text": "Wheat seeds (var.: Nohrin No. 61) were sowed in small pots (6 seeds/pot) and cultivated in a greenhouse for about one month. When differentiation of culm was recognized, a designated amount of the compound in the form of a wettable powder according to Formulation Example 2 was applied to the soil, and cultivation was continued until blooming. Hardness of wheat culms in contrast to those of untreated was manually determined and evaluated into four indices ranging from (-: unchanged) to (+++: prominently softened)."}, "[5]": {"tested_on": "scopolamine production", "test": "Promoting effect on scopolamine production in hairy root culture", "assay_type": "cell-based, Duboisia leichhardtii", "settings": "per culture (50 ml), 28 days after addition", "experimental": "Hairy root of Duboisia leichhardtii are known to produce scopolamine once vegetative parts were infected with Agrobacterium rhizogenes (Plant Science, 59, 191 - 201 (1989)). One hairy root of Duboisia (var.: DL47-1) (wet content, 100 mg) was inoculated in a liquid HF-3 medium (50 ml) and subjected to rotation-culture with a speed of 85 rotations/min at 25°C in the dark place. After twenty-one days, 1000-fold dilution of a dimethylsulfoxide solution of Compound (I) was added to the culture medium to make its final concentration constant. Twenty-eight days thereafter, scopolamine in the hairy roots and the medium was respectively extracted and its amount was measured on a high performance liquid chromatography (HPLC)."}}}
{"compound": "CCOC(=O)C(=N)Nc1cccc(F)c1C", "note": "[Compound No. 26, ethyl N-(3-fluoro-2-methylphenyl)amidinoformate]", "values": [{"measurement": "Concentration of 50 % inhibition of antocyanin production", "setting": "[1]", "value": 0.06, "unit": "ppm"}]}
{"compound": "NOC(Cc1ccccc1)C(=O)O", "note": "(stereo not shown) [AOPP, 2-aminoxy-3-phenylpropionic acid, reference compound]", "values": [{"measurement": "Concentration of 50 % inhibition of antocyanin production", "setting": "[1]", "value": 4, "unit": "ppm"}, {"measurement": "phytotoxicity / adverse effect in the treated plants", "setting": "[2]", "value": "severe phytotoxicity (withering of leaves)"}]}
{"compound": "Cc1c(Cl)cccc1NC(=N)C(=O)[O-].[K+]", "note": "[Compound No. 31, potassium salt of N-(3-chloro-2-methylphenyl)amidinoformic acid]", "values": [{"measurement": "Concentration of 50 % inhibition of antocyanin production", "setting": "[1]", "value": 0.05, "unit": "ppm"}]}
{"compound": "Cc1c(Cl)cccc1NC(=N)C(=O)O", "note": "[Compound No. 3, N-(3-chloro-2-methylphenyl)amidinoformic acid]", "values": [{"measurement": "Concentration of 50 % inhibition of antocyanin production", "setting": "[1]", "value": 0.02, "unit": "ppm"}, {"measurement": "Content of chlorogenic acid", "setting": "[3]", "value": 1.0, "unit": "µg/mg fr.wt"}, {"measurement": "Softening index", "setting": "[4]; 2 mg/pot", "value": "+++"}]}
{"compound": "Cc1cc(F)ccc1NC(=N)C(=O)O", "note": "[Compound No. 5, N-(4-fluoro-2-methylphenyl)amidinoformic acid]", "values": [{"measurement": "Concentration of 50 % inhibition of antocyanin production", "setting": "[1]", "value": 0.1, "unit": "ppm"}]}
{"compound": "Cc1c(Cl)cccc1NC(=N)C(=O)[O-].[Na+]", "note": "[Compound No. 30, sodium salt of N-(3-chloro-2-methylphenyl)amidinoformic acid]", "values": [{"measurement": "Concentration of 50 % inhibition of antocyanin production", "setting": "[1]", "value": 0.05, "unit": "ppm"}]}
{"compound": "Cc1c(F)cccc1NC(=N)C(=O)O", "note": "[Compound No. 1, N-(3-fluoro-2-methylphenyl)amidinoformic acid]", "values": [{"measurement": "Concentration of 50 % inhibition of antocyanin production", "setting": "[1]", "value": 0.04, "unit": "ppm"}, {"measurement": "Content of chlorogenic acid", "setting": "[3]", "value": 1.3, "unit": "µg/mg fr.wt"}, {"measurement": "Softening index", "setting": "[4]; 4 mg/pot", "value": "+++"}, {"measurement": "Amount of scopolamine (mg) Medium", "setting": "[5]; final concentration 0.1 mg/l", "value": 2.7, "unit": "mg"}, {"measurement": "Amount of scopolamine (mg) Root", "setting": "[5]; final concentration 0.1 mg/l", "value": 2.1, "unit": "mg"}, {"measurement": "Amount of scopolamine (mg) Total", "setting": "[5]; final concentration 0.1 mg/l", "value": 4.8, "unit": "mg"}, {"measurement": "Amount of scopolamine (mg) Medium", "setting": "[5]; final concentration 1.0 mg/l", "value": 3.4, "unit": "mg"}, {"measurement": "Amount of scopolamine (mg) Root", "setting": "[5]; final concentration 1.0 mg/l", "value": 2.4, "unit": "mg"}, {"measurement": "Amount of scopolamine (mg) Total", "setting": "[5]; final concentration 1.0 mg/l", "value": 5.8, "unit": "mg"}]}
{"compound": "Cc1ccc(Cl)cc1NC(=N)C(=O)O", "note": "[Compound No. 4, N-(5-chloro-2-methylphenyl)amidinoformic acid]", "values": [{"measurement": "Concentration of 50 % inhibition of antocyanin production", "setting": "[1]", "value": 0.1, "unit": "ppm"}]}
